Data taken from PubChem BioAssay AID328 (DTP/NCI, 2004).
Where “and” joins values, the source holds several entries; their conditions need not be identical. Equal entries are not always repeated. Inconclusive results and toxic doses are left out.

Tested on: BDF1 mice, P388 leukemia ip, median survival T/C
Assay: NCI In Vivo Anticancer Drug Screen. Data for tumor model P388 Leukemia (intraperitoneal) in B6D2F1 (BDF1) mice
Settings: endpoint: median survival time, higher = longer survival
Procedure, shortened: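 Compound-treated tumour-bearing mice were compared with vehicle-treated controls. Survival was recorded, and the value is the treated-group measurement divided by the control-group measurement (T/C).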

[1] = dose: 100.0 mg/kg/injection, schedule: Q01DX009 (ip), vehicle: Klucel (hydroxypropylcellulose) (HPC)
[2] = dose: 100.0 mg/kg/injection, schedule: Q04DX003 (ip), vehicle: Klucel (hydroxypropylcellulose) (HPC)
[3] = dose: 200.0 mg/kg/injection, schedule: Q04DX003 (ip), vehicle: Klucel (hydroxypropylcellulose) (HPC)
[4] = dose: 50.0 mg/kg/injection, schedule: Q01DX009 (ip), vehicle: saline with Tween-80
[5] = dose: 100.0 mg/kg/injection, schedule: Q01DX009 (ip), vehicle: saline with Tween-80
[6] = dose: 50.0 mg/kg/injection, schedule: Q01DX009 (ip), vehicle: saline
[7] = dose: 50.0 mg/kg/injection, schedule: Q04DX003 (ip), vehicle: Klucel (hydroxypropylcellulose) (HPC)
[8] = dose: 200.0 mg/kg/injection, schedule: Q01DX009 (ip), vehicle: saline with Tween-80
[9] = dose: 200.0 mg/kg/injection, schedule: Q01DX009 (ip), vehicle: Klucel (hydroxypropylcellulose) (HPC)

Question: How did the T/C (dose: 25.0 mg/kg/injection, schedule: Q01DX009 (ip), vehicle: Klucel (hydroxypropylcellulose) (HPC)) turn out when `O=[N+]([O-])/C=C\c1ccc2c(c1)OCO2` was run?
Answer: 111 % of control and 120 % of control

Question: And the T/C (dose: 35.0 mg/kg/injection, schedule: Q01DX009 (ip), vehicle: Klucel (hydroxypropylcellulose) (HPC))?
Answer: 105 % of control

Question: What about the T/C (dose: 75.0 mg/kg/injection, schedule: Q01DX009 (ip), vehicle: Klucel (hydroxypropylcellulose) (HPC)) of the same compound?
Answer: 95 % of control

Question: What about the T/C [1] of the same compound?
Answer: 100 % of control and 105 % of control

Question: And the T/C [2]?
Answer: 104 % of control

Question: What about the T/C [3] of the same compound?
Answer: 108 % of control

Question: What does the source list for `CN(C)CC#N`?
Answer: T/C (dose: 10.0 mg/kg/injection, schedule: Q04DX003 (ip), vehicle: saline): 108 % of control; T/C (dose: 20.0 mg/kg/injection, schedule: Q04DX003 (ip), vehicle: saline): 91 % of control; T/C (dose: 40.0 mg/kg/injection, schedule: Q04DX003 (ip), vehicle: saline): 95 % of control

Question: How did the T/C (dose: 25.0 mg/kg/injection, schedule: Q04DX003 (ip), vehicle: saline with Tween-80) turn out when `CCOC(=O)c1ccc(NC(N)=O)cc1` was run?
Answer: 100 % of control

Question: What about the T/C (dose: 50.0 mg/kg/injection, schedule: Q04DX003 (ip), vehicle: saline with Tween-80) of the same compound?
Answer: 102 % of control

Question: And the T/C (dose: 100.0 mg/kg/injection, schedule: Q04DX003 (ip), vehicle: saline with Tween-80)?
Answer: 99 % of control

Question: With `c1ccc(-c2cc3c(N4CCOCC4)nnc(N4CCOCC4)c3cn2)cc1` as the compound, how does the T/C [4] read?
Answer: 89 % of control

Question: What about the T/C [5] of the same compound?
Answer: 86 % of control

Question: How did the T/C (dose: 6.25 mg/kg/injection, schedule: Q01DX009 (ip), vehicle: saline) turn out when `COc1cccc(CC2=NCCc3cc(OC)c(OC)cc32)c1` was run?
Answer: 108 % of control

Question: What about the T/C (dose: 12.5 mg/kg/injection, schedule: Q01DX009 (ip), vehicle: saline) of the same compound?
Answer: 94 % of control

Question: And the T/C (dose: 25.0 mg/kg/injection, schedule: Q01DX009 (ip), vehicle: saline)?
Answer: 94 % of control

Question: What about the T/C (dose: 25.0 mg/kg/injection, schedule: Q04DX003 (ip), vehicle: saline) of the same compound?
Answer: 87 % of control

Question: What about the T/C [6] of the same compound?
Answer: 95 % of control and 98 % of control

Question: And the T/C (dose: 50.0 mg/kg/injection, schedule: Q04DX003 (ip), vehicle: saline)?
Answer: 91 % of control

Question: Which T/C [6] does the source give for `CCN(CC)CCCCCNc1cc(OC)cc2c(C)ccnc12` here?
Answer: 115 % of control

Question: And the T/C (dose: 100.0 mg/kg/injection, schedule: Q01DX009 (ip), vehicle: saline)?
Answer: 92 % of control

Question: Which T/C (dose: 25.0 mg/kg/injection, schedule: Q04DX003 (ip), vehicle: Klucel (hydroxypropylcellulose) (HPC)) does the source give for `O=C1NCCN1c1cccc([N+](=O)[O-])c1` here?
Answer: 100 % of control

Question: And the T/C [7]?
Answer: 100 % of control

Question: Which results are given for `COc1cccc2c1C(=O)c1c(O)c3c(c(O)c1C2=O)C[C@@](O)(/C(C)=N/NC(=O)c1cccc([N+](=O)[O-])c1)C[C@@H]3OC1CC(N)C(O)C(C)O1` (some centres undefined)?
Answer: T/C (dose: 0.25 mg/kg/injection, schedule: Q01DX009 (ip), vehicle: water): 152 % of control; T/C (dose: 0.5 mg/kg/injection, schedule: Q01DX009 (ip), vehicle: water): 163 % of control; T/C (dose: 1.0 mg/kg/injection, schedule: Q01DX009 (ip), vehicle: water): 166 % of control and 191 % of control; T/C (dose: 2.0 mg/kg/injection, schedule: Q01DX009 (ip), vehicle: water): 156 % of control and 214 % of control; T/C (dose: 4.0 mg/kg/injection, schedule: Q01DX009 (ip), vehicle: water): 244 % of control and 184 % of control; T/C (dose: 8.0 mg/kg/injection, schedule: Q01DX009 (ip), vehicle: water): 169 % of control

Question: Which results are given for `CN(C)C1=C(N2CC2)C(=O)C(N(C)C)=C(N2CC2)C1=O`?
Answer: T/C (dose: 0.25 mg/kg/injection, schedule: Q01DX009 (ip), vehicle: saline): 87 % of control; T/C (dose: 0.5 mg/kg/injection, schedule: Q01DX009 (ip), vehicle: saline): 151 % of control; T/C (dose: 1.0 mg/kg/injection, schedule: Q01DX009 (ip), vehicle: saline): 174 % of control

Question: How did the T/C (dose: 50.0 mg/kg/injection, schedule: Q04DX003 (ip), vehicle: gum acacia) turn out when `O=C(/C=N/O)c1ccccc1` was run?
Answer: 100 % of control

Question: What about the T/C (dose: 100.0 mg/kg/injection, schedule: Q04DX003 (ip), vehicle: gum acacia) of the same compound?
Answer: 96 % of control

Question: What about the T/C (dose: 200.0 mg/kg/injection, schedule: Q04DX003 (ip), vehicle: gum acacia) of the same compound?
Answer: 96 % of control

Question: `O=NN(CCCl)C(=O)NC1CCC(NC(=O)N(CCCl)N=O)CC1` (centres undefined) was tested. Which T/C (dose: 11.0 mg/kg/injection, schedule: Q04DX003 (ip), vehicle: saline with Tween-80) did it give?
Answer: 229 % of control

Question: And the T/C (dose: 13.0 mg/kg/injection, schedule: Q01DX009 (ip), vehicle: saline with Tween-80)?
Answer: 187 % of control

Question: And the T/C (dose: 20.0 mg/kg/injection, schedule: Q01DX009 (ip), vehicle: saline with Tween-80)?
Answer: 250 % of control and 272 % of control

Question: What about the T/C (dose: 22.0 mg/kg/injection, schedule: Q04DX003 (ip), vehicle: saline with Tween-80) of the same compound?
Answer: 209 % of control and 220 % of control

Question: What about the T/C (dose: 30.0 mg/kg/injection, schedule: Q01DX009 (ip), vehicle: saline with Tween-80) of the same compound?
Answer: 272 % of control

Question: And the T/C (dose: 44.0 mg/kg/injection, schedule: Q01DX009 (ip), vehicle: saline with Tween-80)?
Answer: 272 % of control

Question: And the T/C (dose: 44.0 mg/kg/injection, schedule: Q04DX003 (ip), vehicle: saline with Tween-80)?
Answer: 272 % of control

Question: What about the T/C (dose: 66.0 mg/kg/injection, schedule: Q01DX009 (ip), vehicle: saline with Tween-80) of the same compound?
Answer: 240 % of control and 272 % of control

Question: What about the T/C (dose: 88.0 mg/kg/injection, schedule: Q04DX003 (ip), vehicle: saline with Tween-80) of the same compound?
Answer: 272 % of control and 300 % of control

Question: And the T/C [5]?
Answer: 224 % of control and 192 % of control

Question: And the T/C (dose: 133.0 mg/kg/injection, schedule: Q04DX003 (ip), vehicle: saline with Tween-80)?
Answer: 300 % of control

Question: And the T/C (dose: 150.0 mg/kg/injection, schedule: Q01DX009 (ip), vehicle: saline with Tween-80)?
Answer: 176 % of control

Question: And the T/C [8]?
Answer: 115 % of control

Question: What about the T/C (dose: 200.0 mg/kg/injection, schedule: Q04DX003 (ip), vehicle: saline with Tween-80) of the same compound?
Answer: 300 % of control

Question: And the T/C (dose: 300.0 mg/kg/injection, schedule: Q04DX003 (ip), vehicle: saline with Tween-80)?
Answer: 210 % of control

Question: What does the source list for `O=C1c2ccccc2C(O)(c2ccccc2)c2c(Cl)cccc21` (centres undefined)?
Answer: T/C [4]: 104 % of control; T/C [5]: 111 % of control; T/C [8]: 95 % of control

Question: Which T/C (dose: 50.0 mg/kg/injection, schedule: Q01DX009 (ip), vehicle: Klucel (hydroxypropylcellulose) (HPC)) does the source give for `COc1cc2ccc(C(C)NCC#N)cc2cc1OC` (centres undefined) here?
Answer: 109 % of control

Question: And the T/C [7]?
Answer: 100 % of control

Question: What about the T/C [1] of the same compound?
Answer: 100 % of control

Question: And the T/C [2]?
Answer: 95 % of control

Question: What about the T/C [9] of the same compound?
Answer: 122 % of control

Question: What about the T/C [3] of the same compound?
Answer: 95 % of control

Question: What does the source list for `ClCc1cccc(CCl)c1`?
Answer: T/C (dose: 50.0 mg/kg/injection, schedule: Q01DX009 (ip), vehicle: saline sonified): 108 % of control; T/C (dose: 100.0 mg/kg/injection, schedule: Q01DX009 (ip), vehicle: saline sonified): 108 % of control; T/C (dose: 200.0 mg/kg/injection, schedule: Q01DX009 (ip), vehicle: saline sonified): 86 % of control

Question: Which results are given for `O=C1C2C(C(=O)N1c1ccc(OCc3ccccc3)cc1)C1c3ccccc3C2C2CCCCN21` (centres undefined)?
Answer: T/C (dose: 3.13 mg/kg/injection, schedule: Q04DX003 (ip), vehicle: water): 93 % of control; T/C (dose: 6.25 mg/kg/injection, schedule: Q04DX003 (ip), vehicle: water): 101 % of control; T/C (dose: 12.5 mg/kg/injection, schedule: Q04DX003 (ip), vehicle: water): 97 % of control; T/C (dose: 25.0 mg/kg/injection, schedule: Q04DX003 (ip), vehicle: water): 101 % of control; T/C (dose: 50.0 mg/kg/injection, schedule: Q04DX003 (ip), vehicle: water): 99 % of control

Question: For `Cc1ccc(S(=O)(=O)OCC(CO)(COS(=O)(=O)c2ccc(C)cc2)[N+](=O)[O-])cc1`, which T/C [1] is on record?
Answer: 100 % of control

Question: And the T/C [2]?
Answer: 113 % of control

Question: And the T/C [9]?
Answer: 95 % of control

Question: And the T/C [3]?
Answer: 121 % of control

Question: What about the T/C (dose: 400.0 mg/kg/injection, schedule: Q04DX003 (ip), vehicle: Klucel (hydroxypropylcellulose) (HPC)) of the same compound?
Answer: 121 % of control

Question: For `COc1ccccc1CN1CCCN(Cc2ccccc2OC)C1c1ccc(N(CCCl)CCCl)cc1C`, which T/C (dose: 65.0 mg/kg/injection, schedule: Q01DX009 (ip), vehicle: Klucel (hydroxypropylcellulose) (HPC)) is on record?
Answer: 95 % of control

Question: And the T/C [1]?
Answer: 109 % of control

Question: With `CCN(CC)c1ccc(/C=C2/C=Cc3ccccc32)cc1` as the compound, how does the T/C (dose: 100.0 mg/kg/injection, schedule: Q04DX003 (ip), vehicle: saline sonified) read?
Answer: 95 % of control

Question: What about the T/C (dose: 200.0 mg/kg/injection, schedule: Q04DX003 (ip), vehicle: saline sonified) of the same compound?
Answer: 100 % of control

Question: What about the T/C (dose: 400.0 mg/kg/injection, schedule: Q04DX003 (ip), vehicle: saline sonified) of the same compound?
Answer: 100 % of control

Question: With `NC(=O)NO` as the compound, how does the T/C (dose: 31.3 mg/kg/injection, schedule: Q01DX010 (ip), vehicle: saline) read?
Answer: 100 % of control

Question: What about the T/C (dose: 62.5 mg/kg/injection, schedule: Q01DX010 (ip), vehicle: saline) of the same compound?
Answer: 100 % of control

Question: And the T/C (dose: 125.0 mg/kg/injection, schedule: Q01DX010 (ip), vehicle: saline)?
Answer: 100 % of control

Question: What about the T/C (dose: 250.0 mg/kg/injection, schedule: Q01DX010 (ip), vehicle: saline) of the same compound?
Answer: 100 % of control

Question: What about the T/C (dose: 500.0 mg/kg/injection, schedule: Q01DX010 (ip), vehicle: saline) of the same compound?
Answer: 150 % of control

Question: And the T/C (dose: 750.0 mg/kg/injection, schedule: Q01DX009 (ip), vehicle: saline)?
Answer: 100 % of control
